# From patent publication US20140357713A1, “ANTIMICROBIAL COMPOUNDS AND METHODS OF USE” (NexMed Holdings, Inc., priority 2012, published 2014)
# Counter-ions that a name gives are not always drawn. Like-named read-outs stand apart in the source and are kept apart here.
# Assays:
# pH (Table 1) = format: physicochemical
# [1] = test system: Escherichia coli (ATCC 25922); assay: Minimum inhibitory concentration (MIC) assay, Example 33; format: cell-based; conditions: for MIC: Table 19 summary of Example 33 and Example 35
# Procedure: (§1) Thirty compounds were tested for antimicrobial activity using standard procedures and standard strains for both the minimum inhibitory concentration (MIC) assay and a time kill study. Both the MIC assay and the time kill study were performed according to Clinical and Laboratory Standards Institute (CLSI) guidelines. Three bacteria strains, Escherichia coli (ATCC 25922), Pseudomonas aeruginosa (ATCC 27853), Staphulococcus aureus (ATCC 29213), and two fungus strains, Candida albicans (ATCC 90029) and Aspergillus niger (CMCC 98003), were used in the experiments.
# (§2) Preparation of cultures. Before the experiment, two days for the bacteria strains and five days for fungus strains, an aliquot was removed from the cultures frozen at −80° C. Medium was added to the surface of an appropriate agar plate and streaked with the aliquot. The plate was incubated for 20 to 24 hrs at 35±2° C. for bacteria or for 5 days at 26-30° C. in incubator for fungus. From the resulting growth on each plate, one isolated colony of similar morphology was selected and re-streaked onto a fresh agar plate using a sterile disposable loop. The plate was incubated 20 to 24 hrs at 35±2° C. or for 5 days at 26-30° C. in an incubator.
# (§3) Preparation of Assay Plates with Medium and Drugs. On the day of the assay, CAMHB medium or RPMI 1640 medium was removed from 4′C storage and allowed to reach room temperature. Ninety microliters (μL) of room temperature CAMHB or RPMI 1640 (supplemented with the appropriate concentration of DMSO, if required) were added to rows B-G of each 96-well microtiter plate. Using a pipette, duplicate 180 μL aliquots of each drug stock solution were added to column 1 (e.g. A1 and B1 or C1 and D1 or E1 and F1 or G1 and H1). Using a multichannel pipette or the Provision 2000 liquid handler, serial 2-fold dilutions (90 μL) were performed in each row across the plate to row G. Eighty μL of compounds dilutions were transferred to a 96-deep well plate. Medium, 1,520 μL of CAMHB or RPMI 1640, was added to each well. The contents of the wells were mixed thoroughly. A 50 μL aliquot of each of the resulting mixtures was transferred to a 96-well assay plate.
# (§4) For bacteria, a sterile inoculating loop was used to transfer growth from an agar plate culture into about 5 mL of test medium. Using a turbidity meter, this inoculum was adjusted so that its density (600 nm) was equivalent to a 0.5 McFarland barium sulfate standard (0.08-0.13). The resulting suspension was diluted 1:100 into medium to obtain two times test inoculums.
# (§5) For Aspergillus niger, sporulating colonies were covered with RPMI 1640, and a suspension was prepared by gently probing the colonies with the tip of a transfer pipette. The suspension was transferred to a sterile tube and mixed with a vortex mixer for 15 seconds. The densities at 530 nm were adjusted to 0.09-0.13 for each sample. The resulting suspension was diluted 1:50 with the medium to obtain two times test inoculums. Fifty μL/well of this inoculum suspension was added to wells of drug-containing plates (1:2 dilution). Plates were incubated at 35° C. for the appropriate times. The MIC was read and recorded according to CLSI guidelines.
# (§6) The MIC values for thirty compounds against Escherichia coli, Pseudomonas aeruginosa, Staphulococcus aureus, Candida albicans, and Aspergillus niger were recorded and are presented in Table 3 and Table 4.
# [2] = test system: Pseudomonas aeruginosa (ATCC 27853); assay: as above; format: cell-based; conditions: for MIC: Table 19 summary
# Procedure: as §1, §2, §3, §4, §5, §6
# [3] = test system: Staphulococcus aureus (ATCC 29213); assay: as above; format: cell-based, Staphylococcus aureus; conditions: for MIC: Table 19 summary
# Procedure: as §1, §2, §3, §4, §5, §6
# [4] = test system: Candida albicans (ATCC 90029); assay: as above; format: cell-based; conditions: for MIC: Table 19 summary
# Procedure: as §1, §2, §3
# For Candida albicans, a sterile inoculating loop was used to transfer growth from an agar plate culture into a tube with RPMI1640 medium. This inoculum was adjusted so that its density at 530 nm was in the ranges from 0.08 to 0.13. The resulting suspension was diluted 1:50 and further diluted 1:20 with the medium to obtain two times test inoculums.
# as §5, §6
# [5] = test system: Aspergillus niger (CMCC 98003); assay: as above; format: cell-based
# Procedure: as §1, §2, §3, §5, §6
# [6] = test system: Escherichia coli (ATCC 25922); assay: Time kill study, Example 33 (0 to 5 min); format: cell-based; conditions: 1×MIC
# Procedure: as §1
# (§7) The viable counts in Log10 CFU/mL at each time point were recorded.
# (§8) Time kill studies. Strain suspensions were prepared as described above for the MIC test, and strain suspensions and compound solutions were mixed in the same volume. Samples were removed at specified times including 0 min, 30 sec, 1 min and 5 mins, were diluted in the test medium and streaked on agar. Colonies were counted after 24 to 48 hrs of incubation. […]
# [7] = test system: Pseudomonas aeruginosa (ATCC 27853); assay: Time kill study, Example 33 (0 to 5 min); format: cell-based; conditions: 1×MIC
# Procedure: as §1, §7, §8
# [8] = test system: Staphylococcus aureus (ATCC 29213); assay: Time kill study, Example 33 (0 to 5 min); format: cell-based; conditions: 1×MIC
# Procedure: as §1, §7, §8
smiles,measurement,setting,value
"CCCCCCCCCCCCOC(=O)C(C)N(C)C (centres unmarked) [Nex-46, Dodecyl 2-(dimethylamino)propanoate 2-hydroxyethanesulfonate]",pH,pH (Table 1),2.95
same,MIC,[1],3130 µg/mL
same,MIC E. coli,[1]; n = 1,3130 µg/mL
same,MIC E. coli,[1]; n = 2,3130 µg/mL
same,MIC,[2],6250 µg/mL
same,MIC P. aeruginosa,[2]; n = 1,6250 µg/mL
same,MIC P. aeruginosa,[2]; n = 2,6250 µg/mL
same,MIC,[3],3130 µg/mL
same,MIC S. aureus,[3]; n = 1,3130 µg/mL
same,MIC S. aureus,[3]; n = 2,3130 µg/mL
same,MIC,[4],>12500 µg/mL
same,MIC Candida albicans,[4]; n = 1,>12500 µg/mL
same,MIC Candida albicans,[4]; n = 2,>12500 µg/mL
same,MIC,[5]; Table 19 summary,>12500 µg/mL
same,MIC Aspergillus niger,[5]; n = 1,>12500 µg/mL
same,MIC Aspergillus niger,[5]; n = 2,>12500 µg/mL
same,"Viable counts, Escherichia coli time kill study",[6]; 0.5 min,5.74 Log10 CFU/mL
same,"Viable counts, Escherichia coli time kill study",[6]; 1 min,5.91 Log10 CFU/mL
same,"Viable counts, Escherichia coli time kill study",[6]; 5 min,3.97 Log10 CFU/mL
same,"Viable counts, Escherichia coli time kill study",[6]; time 0,5.87 Log10 CFU/mL
same,"Viable counts, Pseudomonas aeruginosa time kill study",[7]; 0.5 min,4.48 Log10 CFU/mL
same,"Viable counts, Pseudomonas aeruginosa time kill study",[7]; 1 min,3.7 Log10 CFU/mL
same,"Viable counts, Pseudomonas aeruginosa time kill study",[7]; 5 min,<3.52 Log10 CFU/mL
same,"Viable counts, Pseudomonas aeruginosa time kill study",[7]; time 0,5.67 Log10 CFU/mL
same,"Viable counts, Staphylococcus aureus time kill study",[8]; 0.5 min,6.25 Log10 CFU/mL
same,"Viable counts, Staphylococcus aureus time kill study",[8]; 1 min,6.21 Log10 CFU/mL
same,"Viable counts, Staphylococcus aureus time kill study",[8]; 5 min,6.21 Log10 CFU/mL
same,"Viable counts, Staphylococcus aureus time kill study",[8]; time 0,6.26 Log10 CFU/mL
"CCCCCCCCCCCCOC(=O)C(C)N(C)C (centres unmarked) [Nex-20, Dodecyl 2-(dimethylamino)propanoate maleate]",pH,pH (Table 1); maleate,3.39
same,MIC,[1]; maleate,1560 µg/mL
same,MIC E. coli,"[1]; n = 1, maleate",1560 µg/mL
same,MIC E. coli,"[1]; n = 2, maleate",1560 µg/mL
same,MIC,[2]; maleate,6250 µg/mL
same,MIC P. aeruginosa,"[2]; n = 1, maleate",6250 µg/mL
same,MIC P. aeruginosa,"[2]; n = 2, maleate",6250 µg/mL
same,MIC S. aureus,"[3]; n = 1, maleate",3130 µg/mL
same,MIC S. aureus,"[3]; n = 2, maleate",1560 µg/mL
same,MIC,[4]; maleate,12500 µg/mL
same,MIC Candida albicans,"[4]; n = 1, maleate",12500 µg/mL
same,MIC Candida albicans,"[4]; n = 2, maleate",12500 µg/mL
same,MIC,"[5]; Aspergillus niger, CMCC98003, Table 19 summary, read-out: MIC",> 12500 µg/mL
same,MIC Aspergillus niger,"[5]; n = 1, maleate",>12500 µg/mL
same,"Viable counts, Escherichia coli time kill study","[6]; 0.5 min, maleate",5.84 Log10 CFU/mL
same,"Viable counts, Escherichia coli time kill study","[6]; 1 min, maleate",5.92 Log10 CFU/mL
same,"Viable counts, Escherichia coli time kill study","[6]; 5 min, maleate",4.37 Log10 CFU/mL
same,"Viable counts, Escherichia coli time kill study","[6]; time 0, maleate",5.86 Log10 CFU/mL
same,"Viable counts, Pseudomonas aeruginosa time kill study","[7]; 0.5 min, maleate",<4.0 Log10 CFU/mL
same,"Viable counts, Pseudomonas aeruginosa time kill study","[7]; 1 min, maleate",3.7 Log10 CFU/mL
same,"Viable counts, Pseudomonas aeruginosa time kill study",[7]; 5 min,<3.52 Log10 CFU/mL
same,"Viable counts, Pseudomonas aeruginosa time kill study","[7]; time 0, maleate",5.56 Log10 CFU/mL
same,"Viable counts, Staphylococcus aureus time kill study","[8]; 0.5 min, maleate",6.18 Log10 CFU/mL
same,"Viable counts, Staphylococcus aureus time kill study","[8]; 1 min, maleate",6.15 Log10 CFU/mL
same,"Viable counts, Staphylococcus aureus time kill study","[8]; 5 min, maleate",5.61 Log10 CFU/mL
same,"Viable counts, Staphylococcus aureus time kill study","[8]; time 0, maleate",6.15 Log10 CFU/mL
"CCCCCCCCCCCCOC(=O)[C@@H](C)N(C)C.Cl [Nex-56, D-Dodecyl 2-(dimethylamino)propanoate hydrochloride]",pH,pH (Table 1),1.70
same,MIC,[1],3130 µg/mL
same,MIC E. coli,[1]; n = 1,3130 µg/mL
same,MIC E. coli,[1]; n = 2,3130 µg/mL
same,MIC,[2],6250 µg/mL
same,MIC P. aeruginosa,[2]; n = 1,6250 µg/mL
same,MIC P. aeruginosa,[2]; n = 2,6250 µg/mL
same,MIC,[3],3130 µg/mL
same,MIC S. aureus,[3]; n = 1,3130 µg/mL
same,MIC S. aureus,[3]; n = 2,3130 µg/mL
same,MIC,[4],>12500 µg/mL
same,MIC Candida albicans,[4]; n = 1,>12500 µg/mL
same,MIC Candida albicans,[4]; n = 2,>12500 µg/mL
same,MIC,[5]; Table 19 summary,>12500 µg/mL
same,MIC Aspergillus niger,[5]; n = 1,>12500 µg/mL
same,MIC Aspergillus niger,[5]; n = 2,>12500 µg/mL
same,"Viable counts, Escherichia coli time kill study",[6]; 0.5 min,<4.0 Log10 CFU/mL
same,"Viable counts, Escherichia coli time kill study",[6]; 1 min,<3.70 Log10 CFU/mL
same,"Viable counts, Escherichia coli time kill study",[6]; 5 min,<3.52 Log10 CFU/mL
same,"Viable counts, Escherichia coli time kill study",[6]; time 0,5.92 Log10 CFU/mL
same,"Viable counts, Pseudomonas aeruginosa time kill study",[7]; 0.5 min,<4.0 Log10 CFU/mL
same,"Viable counts, Pseudomonas aeruginosa time kill study",[7]; 1 min,<3.70 Log10 CFU/mL
same,"Viable counts, Pseudomonas aeruginosa time kill study",[7]; 5 min,<3.52 Log10 CFU/mL
same,"Viable counts, Pseudomonas aeruginosa time kill study",[7]; time 0,5.56 Log10 CFU/mL
same,"Viable counts, Staphylococcus aureus time kill study",[8]; 0.5 min,6.27 Log10 CFU/mL
same,"Viable counts, Staphylococcus aureus time kill study",[8]; 1 min,6.16 Log10 CFU/mL
same,"Viable counts, Staphylococcus aureus time kill study",[8]; 5 min,5.9 Log10 CFU/mL
same,"Viable counts, Staphylococcus aureus time kill study",[8]; time 0,6.33 Log10 CFU/mL
"CCCCCCCCCCCCOC(=O)C(C)N(C)C (centres unmarked) [Nex-30, Dodecyl 2-(dimethylamino)propanoate ethanesulfonate]",pH,pH (Table 1),3.79
same,MIC,[1],3130 µg/mL
same,MIC E. coli,[1]; n = 1,3130 µg/mL
same,MIC E. coli,[1]; n = 2,3130 µg/mL
same,MIC,[2],6250 µg/mL
same,MIC P. aeruginosa,[2]; n = 1,6250 µg/mL
same,MIC P. aeruginosa,[2]; n = 2,6250 µg/mL
same,MIC,[3],3130 µg/mL
same,MIC S. aureus,[3]; n = 1,3130 µg/mL
same,MIC S. aureus,[3]; n = 2,3130 µg/mL
same,MIC,[4],>12500 µg/mL
same,MIC Candida albicans,[4]; n = 1,>12500 µg/mL
same,MIC Candida albicans,[4]; n = 2,>12500 µg/mL
same,MIC,[5]; Table 19 summary,>12500 µg/mL
same,MIC Aspergillus niger,[5]; n = 1,>12500 µg/mL
same,MIC Aspergillus niger,[5]; n = 2,>12500 µg/mL
same,"Viable counts, Escherichia coli time kill study",[6]; 0.5 min,5.46 Log10 CFU/mL
same,"Viable counts, Escherichia coli time kill study",[6]; 1 min,3.7 Log10 CFU/mL
same,"Viable counts, Escherichia coli time kill study",[6]; 5 min,<3.52 Log10 CFU/mL
same,"Viable counts, Escherichia coli time kill study",[6]; time 0,5.83 Log10 CFU/mL
same,"Viable counts, Pseudomonas aeruginosa time kill study",[7]; 0.5 min,<4.0 Log10 CFU/mL
same,"Viable counts, Pseudomonas aeruginosa time kill study",[7]; 1 min,<3.70 Log10 CFU/mL
same,"Viable counts, Pseudomonas aeruginosa time kill study",[7]; 5 min,<3.52 Log10 CFU/mL
same,"Viable counts, Pseudomonas aeruginosa time kill study",[7]; time 0,5.67 Log10 CFU/mL
same,"Viable counts, Staphylococcus aureus time kill study",[8]; 0.5 min,6.23 Log10 CFU/mL
same,"Viable counts, Staphylococcus aureus time kill study",[8]; 1 min,6.22 Log10 CFU/mL
same,"Viable counts, Staphylococcus aureus time kill study",[8]; 5 min,6.21 Log10 CFU/mL
same,"Viable counts, Staphylococcus aureus time kill study",[8]; time 0,6.24 Log10 CFU/mL
